The assay in a line: Ionizable cationic lipid library screen, in vitro delivery of luciferase mRNA (mLuc). It is filed as cell-based. The following applies: 18*8 library, LNPs with DOPE, cholesterol, DMG-PEG. From the text: In some embodiments, an ionizable cationic lipid is generally composed of three parts: (1) one or more hydrophilic headgroups containing one or multiple ionizable amines for condensing negatively charged mRNA; (2) one or more hydrophobic hydrocarbon chains capable of promoting self-assembly and phospholipid membrane fusion; and (3) one or more degradable ester linkers connecting the headgroups with the hydrocarbon chains to potentially lower systemic cytotoxicity, as shown in FIG. 9B. In some embodiments, a new library of ionizable cationic lipids is provided, with ionizable amine headgroups derived from different amino alcohols and hydrocarbon lipid chains derived from commercially available lipid acids. In some embodiments, using CALB enzyme-assisted reaction, the hydroxyl groups were reacted with carboxylic acids via one-step high-efficiency esterification, as shown in FIG. 9A. An 18*8 library of lipid-like materials was synthesized by varying amino alcohols and lipid acids. These lipid-like materials with DOPE, cholesterol, and DMG-PEG were fabricated at a molar ratio of 50:10:38.5:1.5, which was a widely used formulation to form LNPs and delivered luciferase encoded mRNA (mLuc) in vitro to generate a luciferase expression heat map of lipid-like materials. […]

Regarding `CCCCC/C=C\C/C=C\CCCCCCCC(=O)OCCN1CCN(CCOC(=O)CCCCCCC/C=C\C/C=C\CCCCC)CC1` [AA3-DLin], the “rank in luciferase expression screen of lipid-like materials” value is “top-performing”.

The record behind these values is patent US20240415781A1, “PYROPTOSIS-TRIGGERING LIPID NANOPARTICLE” (NEW JERSEY INSTITUTE OF TECHNOLOGY, priority 2023, published 2024).
